Measured values from patent publication US6610289B2, “Mutated herpes simplex virus type 1 thymidine kinases and uses thereof” (The Board of Trustees of the University of Arkansas, priority 1998, dated 2003).

How the values were obtained:
[1] = tested on: NIH3T3 cells; experiment: Metabolic labeling with [^3H]GCV, NIH3T3 cell clones; format: cell-based, murine; details: 3T3
Method: For metabolic labeling, cells (1-2×10^6) were labeled in triplicate with 2 μCi [^3H]GCV ([…]) for 18 hours, then nucleotides were extracted from pelleted cells in 0.2 ml 70% methanol at 4° C. for 15 minutes as previously described (21, 24). An aliquot of each methanol soluble supernatant was analyzed for radioactivity by scintillation counting. The methanol insoluble pellets, representative of a crude DNA fraction, were resuspended in 0.15 ml water and also counted for radioactivity. For deoxpyrimidines, cells were grown to confluency in 60 cm^2 plates, and either 2 μCi [^3H]thymidine (2 μM final) or 2 μCi [^3H]dC (10 μM final) were added for 1 or 2 hours respectively prior to extraction in 70% methanol. Methanol-soluble extracts were concentrated by evaporation under nitrogen, and separated on PEI-cellulose thin layer chromatography plates developed in 0.8 M LiCl for GCV or 0.35 M LiCl for thymidine/dC as previously described (21).
NIH3T3 fibroblasts and the human tumor cell line HCT-116 were transfected with wild-type HSV-1TK or with one of three site specific mutants of amino acid Gln-125. From a panel of multiple HSV-1TK expressing clones, a subset of clones from each cell line expressing wild-type HSV-1 TK, the Asn-125 HSV-1 TK mutant (Asn-125TK) and the Glu-125 HSV-1 TK mutant (Glu-125TK) were selected for comparatively equivalent levels of HSV-1 TK protein expression based on Western blot determinations. In this study, these two sets of HSV-1 TK-expressing NIH 3T3 and HCT-116 cell lines were evaluated for intracellular metabolism of [^3H]GCV, [^3H]thymidine, or [^3H]dC. Cells were labeled with [^3H]GCV for 18 hours, then nucleotides were extracted in ice-cold 70% methanol as previously described (21, 24). The data in Table 3 summarize the amount of total nucleotide metabolites isolated in the methanol-soluble extracts (pmol/10^6 cells) as well as the total amount of methanol-insoluble metabolites representative of incorporation into DNA. The Asn-125TK metabolizes GCV at (or near) equal levels to the wild-type HSV-TK in both cell lines. The methanol-insoluble data, while only a crude indicator of [^3H]GCV incorporation into DNA, reflects the numbers obtained with the soluble extracts. As compared with the non-HSV-TK-expressing HCT-116 cells and consistent with data in the previous study (24), minimal [^3H]GCV metabolism was detected in the Asp-125TK cells and these cells were not further evaluated.
The methanol-soluble metabolites were further separated into their constituent phosphorylated GCV metabolites by thin layer chromatography (21). As presented in Table 4, the predominant metabolite in each HSV-TK-expressing cell line was GCVTP. In both HCT-116 and NIH3T3 cell lines, the Asn-125TK cells indicated slightly higher levels of GCVTP as compared to wild-type HSV-1 TK cell lines. […] This difference in the levels of GCVTP in the two Glu-125TK expressing cell lines could explain the lack of sensitivity to GCV killing observed for the NIH3T3 Glu-125TK cell lines.

[2] = tested on: HCT-116 cells; experiment: Clonal dilution assay for GCV sensitivity; format: cell-based, human; details: for Decrease in cell colony numbers: 24 hours, FIG. 4
Method: Parental HCT-116 (large square), wild-type HSV-1 TK cells (triangle), Asn-125TK cells (small square) and Glu-125TK cells (diamond) were treated with 0, 0.1, 1 or 10 μM GCV in triplicate for 24 hours. After this time, each well of cells was sequentially diluted from 1:10 to 1:10,000 in 1 ml of fresh media on a separate 24 well plate. After 7 days, surviving cell colonies were fixed in 100% methanol, stained with 0.1% methylene blue and counted.
For determination of GCV sensitivity, parental HCT-116 and each HSV-1 TK expressing cells were seeded in 24 well plates (2×10^5/well) in 1 ml of media. The next day, 0, 0.1, 1 or 10 μM GCV was added to each cell line in triplicate. After 24 hours, for each well the media was removed, cells were rinsed twice in fresh media, trypsinized, then media was added to 1 ml per well. Each well of cells was then sequentially diluted from 1:10 to 1:10,000 in 1 ml of fresh media on a separate 24 well plate. After 7 days, surviving cell colonies were fixed in 100% methanol, stained with 0.1% methylene blue and counted. For bystander effect assays, each of the three HSV-1 TK expressing cell lines were plated with parental HCT-116 cells (total 2×10^5/well) in the following proportions: (parental: HSV-1TK cells) 100%:0; 95%:5%; 90%:10%; 75%:25%; 50%:50% and 0:100%. After two days, 25 μM GCV was added in 1 ml fresh media. After 24 hrs, the media was removed and cells from each well were diluted from 1:10 to 1:10,000 as described above. After 7 days, surviving cell colonies were fixed and stained for counting.
Cells previously plated in 24 well plates were treated with GCV (0-10 μM) in triplicate for 24 hours. Following drug removal, cells were diluted and replated in fresh media from dilutions of 1:10 to 1:10,000. Surviving cell colonies were counted 6-7 days later.

[3] = tested on: HCT-116 cells; experiment: DAPI-staining of apoptotic cells; format: cell-based, human; details: 25 μM GCV, 36 or 84 hrs, FIG. 7
Method: The HCT-116 cells expressing wild-type HSV-1 TK (FIG. 7A), Asn-125TK (FIG. 7B), or Glu-125TK (FIG. 7C) were grown on chamber slides and incubated with 25 μM GCV for 36 or 84 hours. Control cultures for each cell line without GCV addition (top row) were evaluated after 84 hours. At the indicated time point, cells were fixed in methanol, stained with DAPI, and nuclei visualized by fluorescent microscopy. Each image is magnified 40×.
Parental HCT-116 cells and each HSV-1 TK expressing cell line were plated (5×10^4 cells/well) in 8-well plastic chamber slides (Lab-Tek) and treated plus or minus 25 mM GCV for 36 or 84 hrs. At either time point, cells were washed with phosphate-buffered saline followed by staining in 1 μg/ml DAPI (4′,6′-diamidine-2′-phenylindoledihydrochloride) in 100% methanol at 37° C. for 10 min. After rinsing, the stained cells were visualized with a Zeiss flourescent microscope at 40× magnification with a DAPI-specific filter.

[4] = tested on: HCT-116 cells; experiment: Clonal dilution assay for bystander effect cell killing; format: cell-based, human; details: 25 μM GCV 24 hours
Method: Each of the three HSV-1 TK expressing cell lines were plated with parental HCT-116 cells (total 2×10^5/well) in the following proportions: (parental: HSV-1TK cells) 100%:0; 95%:5%; 90%:10%; 75%:25%; 50%:50% and 0:100%. […] After 7 days, surviving cell colonies were fixed in 100% methanol, stained with 0.1% methylene blue and counted.
For determination of GCV sensitivity, parental HCT-116 and each HSV-1 TK expressing cells were seeded in 24 well plates (2×10^5/well) in 1 ml of media. The next day, 0, 0.1, 1 or 10 μM GCV was added to each cell line in triplicate. After 24 hours, for each well the media was removed, cells were rinsed twice in fresh media, trypsinized, then media was added to 1 ml per well. Each well of cells was then sequentially diluted from 1:10 to 1:10,000 in 1 ml of fresh media on a separate 24 well plate. After 7 days, surviving cell colonies were fixed in 100% methanol, stained with 0.1% methylene blue and counted. […]
It has been previously established that HCT-116 cells expressing HSV-1 TK are sensitive to bystander effect cell death via a connexin-43 gap junction mediated transfer of GCV metabolites (24). […] In these same cell lines, a greater than 4-log reduction in cell colony numbers was detected with 25% and 50% proportions of HSV-1 TK-expressing cells. […]

[5] = tested on: Caspase 3; experiment: Caspase 3 colorimetric assay; format: cell-based, human; details: 25 μM GCV, FIG. 8
Method: Parental HCT-116, wild-type HSV-1TK, Asn-125TK and Glu-125TK-expressing HCT-116 cells were treated with 0 (black bars) or 25 μM GCV (gray bars) for 4 days. Cell lysates were prepared and caspase 3 assays performed using a colorimetric ApoAlert CPP32/Caspase-3 kit as per manufacturers instructions (Clontech). Relative caspase 3 activity was determined by O.D. 405 nm readings of the cleaved DEVD-pNA substrate and presented as DVEDase activity.
Caspase 3-like activity was determined in parental HCT-116 and each HSV-1 TK expressing cell line treated for 50 hrs plus or minus 25 μM GCV using an Apo-Alert CPP32/Caspase 3 Colorimetric Assay kit with the peptide substrate, DEVD-pNA, as per manufacturers instructions (Clontech Laboratories, INC.). GCV-treated and untreated cells were grown in 25 cm^2 flasks, and cell numbers were determined using a hemocytometer prior to analysis. Assays were done in triplicate with protein extracts derived from 2×10^6 cells. The amount of Caspase 3-like activities were quantitated using a Shimadzu UV/VIS spectophotometer set at 405 nm.
Caspase 3 activity was determined in different cell extracts derived from GCV-treated and control cells using a calorimetric assay with the peptide substrate DVED (SEQ ID No. 4).

| Substance | Phosphorylated metabolite GCVDP [1] [pmol/10^6 cells] | Phosphorylated metabolite GCVMP [1] [pmol/10^6 cells] | Phosphorylated metabolite GCVTP [1] [pmol/10^6 cells] | Decrease in cell colony numbers ([2]; 0.1 μM GCV) | Decrease in cell colony numbers ([2]; 10 μM GCV) [log] | Nuclear morphology of DAPI-stained nuclei after GCV [3] | Decrease in cell colony numbers ([2]; 1 μM GCV) [log] | Reduction in cell colony numbers ([2]; 20-110 μM GCV (data not shown)) | Bystander effect: decrease in cell colony numbers ([4]; 10% proportions) [log] | Bystander effect: decrease in cell colony numbers ([4]; 50% proportions) [log] | DVED-ase activity of GCV-treated cells relative to GCV-treated wild-type or Asn-125 HSV-1TK-expressing cells [5] |
| --- | --- | --- | --- | --- | --- | --- | --- | --- | --- | --- | --- |
| Asn-125 | 21 | 11 | 272 | 2 log | 4 | progressive increases in condensed and fragmented nuclei characteristic of apoptosis |  |  |  |  |  |
| Gln-125 (WT): wild-type herpes simplex virus type 1 thymidine kinase with glutamine at position 125, parent enzyme [reference compound] | 22 | 12 | 232 | 2 log | 4 | progressive increases in condensed and fragmented nuclei characteristic of apoptosis |  |  |  |  |  |
| Glu-125 | 0 | 0 | 1.6 | no reduction | 2.5 | fewer swelled nuclei and little evidence of apoptotic nuclei | 0.7 | over 3 log | 1 | ~3 | three times lower |
